In ChEMBL document CHEMBL1201862, “PubChem BioAssay data set” (2004):
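Grown in 96-well plates, cells were treated for 48 hours with each compound at five concentrations. Insufficient inhibition: endpoint recorded as highest concentration tested. The concentration for 50% growth inhibition is given as GI50.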 Active and inactive are the calls of the source. Cut-off read from the data, not from the text of the source: active = GI50 up to about 1.1 µM and inactive = higher.

Legend:
Assay in all cases: NCI tumour cell line growth inhibition, 48 h
[1] = tested on: HOP-62
[2] = tested on: LOX IMVI
[3] = tested on: SNB-78
[4] = tested on: HCT-116
[5] = tested on: OVCAR-4
[6] = tested on: IGROV-1
[7] = tested on: 786-0
[8] = tested on: DLD-1
[9] = tested on: HCT-15
[10] = tested on: EKVX
[11] = tested on: ACHN
[12] = tested on: UACC-62
[13] = tested on: M19-MEL
[14] = tested on: NCI-H226
[15] = tested on: A498
[16] = tested on: DMS-114
[17] = tested on: SN12C
[18] = tested on: KM-20L2
[19] = tested on: NCI-H522
[20] = tested on: HL-60
[21] = tested on: OVCAR-8
[22] = tested on: UO-31
[23] = tested on: UACC-257
[24] = tested on: OVCAR-5
[25] = tested on: HOP-92
[26] = tested on: OVCAR-3
[27] = tested on: SF-295
[28] = tested on: KM12
[29] = tested on: SK-OV-3
[30] = tested on: Malme-3M
[31] = tested on: RPMI-8226
[32] = tested on: SNB-19
[33] = tested on: MOLT-4
[34] = tested on: CAKI-1
[35] = tested on: SF-539
[36] = tested on: M14
[37] = tested on: TK-10
[38] = tested on: COLO 205
[39] = tested on: SW-620
[40] = tested on: HT-29
[41] = tested on: SF-268
[42] = tested on: SK-MEL-5
[43] = tested on: U-251
[44] = tested on: K562
[45] = tested on: A549
[46] = tested on: DMS-273
[47] = tested on: NCI-H460
[48] = tested on: CCRF-CEM
[49] = tested on: HCC 2998
[50] = tested on: LXFL 529
[51] = tested on: XF498
[52] = tested on: NCI-H23
[53] = tested on: RXF 631
[54] = tested on: HOP-18
[55] = tested on: SNB-75
[56] = tested on: SR
[57] = tested on: SK-MEL-28
[58] = tested on: RXF 393
[59] = tested on: SK-MEL-2

With O=C(CC(=O)c1cccc2ccccc12)C(=O)Nc1ccc(Cl)cc1 as the compound, how does the GI50 [1] read?
Its GI50 is > 100 µM (inactive).

And the GI50 [2]?
Its GI50 is > 100 µM (inactive).

What about the GI50 [3] of the same compound?
The GI50 was > 100 µM (inactive).

And the GI50 [4]?
The GI50 was > 100 µM (inactive).

And the GI50 [5]?
Its GI50 is > 100 µM (inactive).

What about the GI50 [6] of the same compound?
Its GI50 is > 100 µM (inactive).

And the GI50 [7]?
Its GI50 is > 100 µM (inactive).

And the GI50 [8]?
The GI50 was > 100 µM (inactive).

And the GI50 [9]?
The GI50 was > 100 µM.

What about the GI50 [10] of the same compound?
The GI50 was > 100 µM (inactive).

What about the GI50 [11] of the same compound?
The GI50 was > 100 µM (inactive).

And the GI50 [12]?
Its GI50 is > 100 µM (inactive).

What about the GI50 [13] of the same compound?
The GI50 was > 100 µM (inactive).

And the GI50 [14]?
The GI50 was > 100 µM (inactive).

What about the GI50 [15] of the same compound?
Its GI50 is > 100 µM (inactive).

And the GI50 [16]?
The GI50 was > 100 µM (inactive).

What about the GI50 [17] of the same compound?
The GI50 was > 100 µM (inactive).

What about the GI50 [18] of the same compound?
Its GI50 is > 100 µM (inactive).

What about the GI50 [19] of the same compound?
The GI50 was > 100 µM (inactive).

What about the GI50 [20] of the same compound?
Its GI50 is > 100 µM (inactive).

And the GI50 [21]?
The GI50 was > 100 µM (inactive).

And the GI50 [22]?
Its GI50 is > 100 µM (inactive).

What about the GI50 [23] of the same compound?
Its GI50 is > 100 µM (inactive).

What about the GI50 [24] of the same compound?
The GI50 was > 100 µM (inactive).

And the GI50 [25]?
Its GI50 is 19.6 µM (inactive).

And the GI50 [26]?
The GI50 was > 100 µM (inactive).

What about the GI50 [27] of the same compound?
The GI50 was > 100 µM (inactive).

And the GI50 [28]?
Its GI50 is > 100 µM (inactive).

What about the GI50 [29] of the same compound?
Its GI50 is > 100 µM (inactive).

And the GI50 [30]?
Its GI50 is > 100 µM (inactive).

What about the GI50 [31] of the same compound?
The GI50 was > 100 µM (inactive).

What about the GI50 [32] of the same compound?
The GI50 was > 100 µM (inactive).

What about the GI50 [33] of the same compound?
Its GI50 is > 100 µM (inactive).

And the GI50 [34]?
The GI50 was > 100 µM (inactive).

What about the GI50 [35] of the same compound?
The GI50 was > 100 µM (inactive).

And the GI50 [36]?
The GI50 was > 100 µM (inactive).

What about the GI50 [37] of the same compound?
The GI50 was > 100 µM (inactive).

What about the GI50 [38] of the same compound?
The GI50 was > 100 µM (inactive).

And the GI50 [39]?
The GI50 was > 100 µM (inactive).

What about the GI50 [40] of the same compound?
Its GI50 is > 100 µM (inactive).

And the GI50 [41]?
The GI50 was > 100 µM (inactive).

And the GI50 [42]?
Its GI50 is > 100 µM (inactive).

What about the GI50 [43] of the same compound?
Its GI50 is > 100 µM (inactive).

And the GI50 [44]?
Its GI50 is > 100 µM (inactive).

And the GI50 [45]?
Its GI50 is > 100 µM (inactive).

What about the GI50 [46] of the same compound?
The GI50 was > 100 µM (inactive).

And the GI50 [47]?
Its GI50 is > 100 µM (inactive).

And the GI50 [48]?
The GI50 was > 100 µM (inactive).

What about the GI50 [49] of the same compound?
The GI50 was > 100 µM (inactive).

What about the GI50 [50] of the same compound?
Its GI50 is > 100 µM (inactive).

What about the GI50 [51] of the same compound?
The GI50 was > 100 µM (inactive).

And the GI50 [52]?
The GI50 was > 100 µM (inactive).

And the GI50 [53]?
The GI50 was > 100 µM (inactive).

And the GI50 [54]?
Its GI50 is > 100 µM (inactive).

What does the source list for CC1=Nc2ccccc2C12C(c1ccccc1)C(c1ccccc1)C(=O)N1c3ccccc3CC12 (centres undefined)?
GI50 [1]: > 100 µM (inactive); GI50 [2]: > 100 µM (inactive); GI50 [3]: > 100 µM (inactive); GI50 [4]: > 100 µM (inactive); GI50 [5]: 19.9 µM (inactive); GI50 [6]: > 100 µM (inactive); GI50 [7]: > 100 µM (inactive); GI50 [8]: > 100 µM (inactive); GI50 [9]: > 100 µM; GI50 [10]: > 100 µM (inactive); GI50 [11]: > 100 µM (inactive); GI50 [12]: > 100 µM (inactive); GI50 [14]: > 100 µM (inactive); GI50 [15]: > 100 µM (inactive); GI50 [16]: > 100 µM (inactive); GI50 [17]: > 100 µM (inactive); GI50 [55]: 73.1 µM (inactive); GI50 [18]: > 100 µM (inactive); GI50 [19]: > 100 µM (inactive); GI50 [20]: > 100 µM (inactive); GI50 [21]: > 100 µM (inactive); GI50 [22]: > 100 µM (inactive); GI50 [23]: > 100 µM (inactive); GI50 [24]: > 100 µM (inactive); GI50 [25]: > 100 µM (inactive); GI50 [26]: > 100 µM (inactive); GI50 [27]: > 100 µM (inactive); GI50 [28]: > 100 µM (inactive); GI50 [29]: > 100 µM (inactive); GI50 [30]: > 100 µM (inactive); GI50 [31]: > 100 µM (inactive); GI50 [32]: > 100 µM (inactive); GI50 [33]: > 100 µM (inactive); GI50 [34]: > 100 µM (inactive); GI50 [35]: > 100 µM (inactive); GI50 [56]: > 100 µM (inactive); GI50 [36]: > 100 µM (inactive); GI50 [37]: > 100 µM (inactive); GI50 [38]: > 100 µM (inactive); GI50 [39]: > 100 µM (inactive); GI50 [40]: > 100 µM (inactive); GI50 [57]: > 100 µM (inactive); GI50 [42]: > 100 µM (inactive); GI50 [43]: > 100 µM (inactive); GI50 [44]: > 100 µM (inactive); GI50 [45]: > 100 µM (inactive); GI50 [46]: > 100 µM (inactive); GI50 [47]: > 100 µM (inactive); GI50 [58]: > 100 µM (inactive); GI50 [49]: > 100 µM (inactive); GI50 [50]: > 100 µM (inactive); GI50 [51]: 11.9 µM (inactive); GI50 [52]: > 100 µM (inactive); GI50 [53]: > 100 µM (inactive); GI50 [59]: > 100 µM (inactive)
